Data published in PMC10383864, “Novel 2-Sulfanylquinazolin-4(3H)-one Derivatives as Multi-Kinase Inhibitors and Apoptosis Inducers: A Synthesis, Biological Evaluation, and Molecular Docking Study” (Molecules, 2023).
Where two headings read alike, the source gives them in different places.

How the values were obtained:
[1] = MTT cytotoxicity assay, normal human cell line; format: cell-based; settings: human, WI38 cells (normal human cells), 24 h treatment, mean ± SD of three experiments, read-out: In Vitro Cytotoxicity IC50 WI38
Experimental: (§1) In addition, the safety profile of the 2-sulfanylquinazolin-4(3H)-one derivatives was evaluated against normal human cells (WI38) […]. The standard MTT (3-(4,5-dimethylthiazol-2-yl)-2,5 diphenyl tetrazolium bromide) colorimetric assay protocol was used, as described by Mosmann. […] The results were expressed as growth inhibitory concentration (IC50) values.
(§2) The cell lines were obtained from ATCC (American Type Culture Collection). […] After incubation, the cells were treated with different concentrations of the synthesized compounds and incubated for 24 h. Afterward, the cells were washed with PBS, and 20 µL of MTT solution at 5 mg/mL was added, all incubated for 4 h. The MTT solution was discarded, and 100 µL of dimethyl sulfoxide (DMSO) was added per well. […] The relative cell viability in percentage was calculated as (A570 of treated cells/A570 of untreated cells) × 100.

HeLa cells = experiment: MTT cytotoxicity assay; format: cell-based, human; settings: 24 h treatment, mean ± SD of three experiments, read-out: In Vitro Cytotoxicity IC50 HeLa
Experimental: as §1, §2

HepG2 cells [2] = experiment: MTT cytotoxicity assay; format: cell-based, human; settings: 24 h treatment, mean ± SD of three experiments, read-out: In Vitro Cytotoxicity IC50 HepG2
Experimental: as §1, §2

MCF-7 cells = experiment: MTT cytotoxicity assay; format: cell-based, human; settings: MCF-7, MTT, 24 h treatment, mean ± SD of three experiments, read-out: In Vitro Cytotoxicity IC50 MCF-7
Experimental: as §1, §2

MDA-MB-231 cells = experiment: MTT cytotoxicity assay; format: cell-based, human; settings: MDA-MB-231, MTT, 24 h treatment, mean ± SD of three experiments, read-out: In Vitro Cytotoxicity IC50 MDA-MB-231
Experimental: as §1, §2

WI38 cells = experiment: MTT cytotoxicity assay, normal human cell line; format: cell-based; settings: 24 h treatment, mean ± SD of three experiments, read-out: In Vitro Cytotoxicity IC50 WI38
Experimental: as §1, §2

[3] = test system: HepG2, MCF-7, MDA-231, and HeLa; experiment: MTT cytotoxicity assay, range over the tested cancer cell lines; format: cell-based; settings: Homo sapiens, range over HepG2, MCF-7, MDA-231 and HeLa, read-out: IC50 range against all tested cancer cell lines
Experimental: as §1, §2

EGFR = biological target: T1, EGFR (Homo sapiens, UniProt P00533); experiment: Kinase inhibition, ELISA kit; format: biochemical; settings: mean ± SD of three experiments
T1 construct: purchased
Experimental: The corresponding kinase inhibitory kit assays were used, and the results are expressed as IC50 values (µM), as presented in Table 2. […] Afterward, the plate was incubated at room temperature for 2.5 h and then washed with PBS. A total of 100 μL of the prepared biotin antibody was added and incubated at room temperature for an additional 1 h, and then 100 μL of streptavidin solution was added and incubated at room temperature for another 45 min. After washing, 100 μL of TMB substrate reagent was added and incubated for 30 min at room temperature. Finally, about 50 μL of the stop solution was added and then read at 450 nm immediately. A standard curve was drawn, with concentrations on the X-axis and absorbance on the Y-axis.

CDK2 = biological target: T2, CDK2 (Homo sapiens, UniProt P24941); experiment: Kinase inhibition, ELISA kit; format: biochemical; settings: mean ± SD of three experiments
T2 construct: purchased
Experimental: (§3) The corresponding kinase inhibitory kit assays were used, and the results are expressed as IC50 values (µM), as presented in Table 2.
(§4) Afterward, the plate was incubated at room temperature for 2.5 h and then washed with PBS. A total of 100 μL of the prepared biotin antibody was added and incubated at room temperature for an additional 1 h, and then 100 μL of streptavidin solution was added and incubated at room temperature for another 45 min. After washing, 100 μL of TMB substrate reagent was added and incubated for 30 min at room temperature. Finally, about 50 μL of the stop solution was added and then read at 450 nm immediately. A standard curve was drawn, with concentrations on the X-axis and absorbance on the Y-axis.

HER2 = biological target: T3, HER2 (Homo sapiens, UniProt P04626); experiment: Kinase inhibition, ELISA kit; format: biochemical; settings: mean ± SD of three experiments
T3 construct: purchased
Experimental: as §3, §4

VEGFR2 = biological target: T4, VEGFR2 (Homo sapiens, UniProt P35968); experiment: Kinase inhibition, ELISA kit; format: biochemical; settings: mean ± SD of three experiments
T4 construct: purchased
Experimental: . The corresponding kinase inhibitory kit assays were used, and the results are expressed as IC50 values (µM), as presented in Table 2. […]. The inhibitory activity of compound 5d against CDK2, HER2, EGFR, and VEGFR2 was evaluated using the corresponding human kinases ELISA kit (Enzyme-Linked Immunosorbent Assay). In brief, specific antibodies for each kinase were seeded on a 96-well plate, and 100 μL of the standard solution or compound 5d was added. Afterward, the plate was incubated at room temperature for 2.5 h and then washed with PBS. A total of 100 μL of the prepared biotin antibody was added and incubated at room temperature for an additional 1 h, and then 100 μL of streptavidin solution was added and incubated at room temperature for another 45 min. After washing, 100 μL of TMB substrate reagent was added and incubated for 30 min at room temperature. Finally, about 50 μL of the stop solution was added and then read at 450 nm immediately. A standard curve was drawn, with concentrations on the X-axis and absorbance on the Y-axis.

HepG2 cells [4] = experiment: Flow cytometry analysis of cell cycle; format: cell-based, human; settings: HepG2, 7.1 µM, 24 h
Experimental: (§5) In order to investigate apoptosis, the most cytotoxic compound in anti-proliferative assay 5d was further exposed to […] using the standard Annexin V/PI double staining procedure.
Flow cytometry analysis was conducted to assess the effect of compound 5d on the cell cycle distribution in HepG2 cells. The Flow Cytometry Kit for cell cycle analysis (ab139418_Propidium Iodide Flow Cytometry Kit/BD) was used in this test. First, the HepG2 cells were seeded in six-well plates at a density of 2 × 10^5 cells/well and incubated for 24 h. In the second step, 10% FBS was added, and the cells were incubated at 37 °C and 5% CO2. The medium was replaced with (DMSO 1% v/v) containing 7.1 µM of compound 5d and then incubated for 24 h. After that, the cells were fixed with 70% ethanol at 4 °C for 12 h and washed with cold PBS, and then rinsed with PBS. In the last step, 100 μL of RNase A was added to each well and incubated at 37 °C for 30 min and stained with 400 μL PI in the dark at room temperature for an additional 30 min. The stained cells were measured using an Epics XL-MCL™ Flow Cytometer (Beckman Coulter), and the data were analyzed using Flowing software (version 2.5.1, Turku Centre for Biotechnology, Turku, Finland).

HepG2 cells [5] = experiment: Annexin V-FITC/PI apoptosis assay; format: cell-based, human; settings: HepG2, 7.1 µM, 24 h
Experimental: as §5
The apoptotic and necrotic effect of compound 5d was investigated using flow cytometry, as described in [43]. The HepG2 cells were treated with 7.1 µM of compound 5d for 24 h. After treatment, the cells were collected by trypsinization, centrifuged, and washed two times with PBS. A suspension of cells in 500 μL binding buffer was double stained with 5 μL Annexin V-FITC and 5 μL PI in the dark at room temperature for 15 min. The stained cells were measured using an Epics XL-MCL™ Flow Cytometer (Beckman Coulter), and the data were analyzed using Flowing software (version 2.5.1, Turku Centre for Biotechnology, Turku, Finland).

Bax = experiment: RT-PCR of apoptosis-related genes in HepG2 cells; format: cell-based, human; settings: HepG2 cells treated with 5d, control = 1, increase
Experimental: (§6) RT-PCR reactions were carried out to investigate the relative gene expression of apoptosis-related genes, including the proapoptotic genes Bax, caspases 3 and 9, and the anti-apoptotic Bcl2 gene. […] Therefore, it can be concluded that the induction of apoptosis in HepG2 cells upon treatment with 5d is associated with the upregulation of proapoptotic genes and the downregulation of anti-apoptotic genes.
(§7) The level of apoptotic markers caspase-3, caspase-9, Bax, and Bcl-2 was measured using BIORAD iScript TM One-Step RT-PCR kit with SYBR® Green. According to the manufacturer’s instructions, the kit was used in three subsequent steps.
(§8) mRNA isolation of up to 1 × 10^7 cells was carried out using an RNeasy extraction kit. Cells were disrupted in RNeasy Lysis Buffer (RLT buffer) and homogenized. Ethanol was then added to make a lysate and provoke the selective binding of RNA to the RNeasy membrane. The sample was then applied to the RNeasy mini spin column, where total RNA binds to the membrane while contaminants pass through. The RNA was then eluted in RNase-free water.
(§9) All the following reagents were mixed to make about 50 μL mixture: 2X SYBR® Green RT-PCR reaction mixture (25 μL), forward primer (10 μM; 1.5 μL), reverse primer (10 μM; 1.5 μL), nuclease-free H2O (11 μL), RNA template (1 pg to 100 ng total RNA; 10 μL) and iScript reverse transcriptase for One-Step RT-PCR (1 μL).
(§10) The whole reaction mixture was incubated in a real-time thermal detection system (Rotorgene) as follows: cDNA synthesis (10 min at 50 °C), iScript reverse transcriptase inactivation (5 min at 95 °C), PCR cycling and detection (30–45 cycles):10 s at 95 °C and 30 s at 55 °C to 60 °C (data collection step) and melt curve analysis: 1 min at 95 °C, 1 min at 55 °C and 10 s at 55 °C–95 °C (80 cycles, increasing each by 0.5 °C each cycle).

Bcl2 = experiment: RT-PCR of apoptosis-related genes in HepG2 cells; format: cell-based, human; settings: HepG2 cells treated with 5d, control = 1, downregulated
Experimental: as §6, §7, §8, §9, §10

caspase-3 = experiment: RT-PCR of apoptosis-related genes in HepG2 cells; format: cell-based, human; settings: HepG2 cells treated with 5d, control = 1, increase
Experimental: as §6, §7, §8, §9, §10

caspase-9 = experiment: RT-PCR of apoptosis-related genes in HepG2 cells; format: cell-based, human; settings: HepG2 cells treated with 5d, control = 1, increase
Experimental: as §6, §7, §8, §9, §10

T3 sequence (P04626 23-1255): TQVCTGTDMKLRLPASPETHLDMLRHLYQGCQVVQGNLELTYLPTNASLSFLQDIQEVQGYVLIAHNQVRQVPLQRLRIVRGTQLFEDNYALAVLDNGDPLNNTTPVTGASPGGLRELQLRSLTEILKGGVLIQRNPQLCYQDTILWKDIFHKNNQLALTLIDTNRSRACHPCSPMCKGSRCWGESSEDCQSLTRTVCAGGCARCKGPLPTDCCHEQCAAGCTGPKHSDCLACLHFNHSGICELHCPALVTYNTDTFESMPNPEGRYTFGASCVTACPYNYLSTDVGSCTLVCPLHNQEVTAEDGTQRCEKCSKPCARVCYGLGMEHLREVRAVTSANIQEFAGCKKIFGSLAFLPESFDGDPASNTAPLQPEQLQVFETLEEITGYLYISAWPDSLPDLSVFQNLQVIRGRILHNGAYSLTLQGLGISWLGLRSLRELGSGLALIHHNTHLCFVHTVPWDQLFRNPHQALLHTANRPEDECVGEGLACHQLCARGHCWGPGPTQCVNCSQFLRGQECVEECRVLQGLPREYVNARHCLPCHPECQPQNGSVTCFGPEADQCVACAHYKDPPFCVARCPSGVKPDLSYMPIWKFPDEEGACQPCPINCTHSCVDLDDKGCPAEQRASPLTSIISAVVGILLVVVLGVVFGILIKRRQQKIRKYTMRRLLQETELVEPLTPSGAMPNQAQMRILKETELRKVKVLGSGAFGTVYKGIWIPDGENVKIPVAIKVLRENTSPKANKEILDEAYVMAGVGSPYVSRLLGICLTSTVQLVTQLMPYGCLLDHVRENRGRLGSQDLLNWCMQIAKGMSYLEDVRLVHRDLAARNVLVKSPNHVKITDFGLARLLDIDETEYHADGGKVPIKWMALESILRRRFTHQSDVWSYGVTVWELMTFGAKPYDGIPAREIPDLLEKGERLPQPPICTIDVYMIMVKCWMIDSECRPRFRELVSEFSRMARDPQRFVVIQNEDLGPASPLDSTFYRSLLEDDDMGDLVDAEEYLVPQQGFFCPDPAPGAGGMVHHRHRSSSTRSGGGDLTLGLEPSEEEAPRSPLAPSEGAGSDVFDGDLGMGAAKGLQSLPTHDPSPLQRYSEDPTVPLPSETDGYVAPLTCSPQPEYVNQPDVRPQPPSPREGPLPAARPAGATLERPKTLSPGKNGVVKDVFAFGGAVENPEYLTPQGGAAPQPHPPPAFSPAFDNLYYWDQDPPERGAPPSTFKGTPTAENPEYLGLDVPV
T1 sequence (P00533 25-1210): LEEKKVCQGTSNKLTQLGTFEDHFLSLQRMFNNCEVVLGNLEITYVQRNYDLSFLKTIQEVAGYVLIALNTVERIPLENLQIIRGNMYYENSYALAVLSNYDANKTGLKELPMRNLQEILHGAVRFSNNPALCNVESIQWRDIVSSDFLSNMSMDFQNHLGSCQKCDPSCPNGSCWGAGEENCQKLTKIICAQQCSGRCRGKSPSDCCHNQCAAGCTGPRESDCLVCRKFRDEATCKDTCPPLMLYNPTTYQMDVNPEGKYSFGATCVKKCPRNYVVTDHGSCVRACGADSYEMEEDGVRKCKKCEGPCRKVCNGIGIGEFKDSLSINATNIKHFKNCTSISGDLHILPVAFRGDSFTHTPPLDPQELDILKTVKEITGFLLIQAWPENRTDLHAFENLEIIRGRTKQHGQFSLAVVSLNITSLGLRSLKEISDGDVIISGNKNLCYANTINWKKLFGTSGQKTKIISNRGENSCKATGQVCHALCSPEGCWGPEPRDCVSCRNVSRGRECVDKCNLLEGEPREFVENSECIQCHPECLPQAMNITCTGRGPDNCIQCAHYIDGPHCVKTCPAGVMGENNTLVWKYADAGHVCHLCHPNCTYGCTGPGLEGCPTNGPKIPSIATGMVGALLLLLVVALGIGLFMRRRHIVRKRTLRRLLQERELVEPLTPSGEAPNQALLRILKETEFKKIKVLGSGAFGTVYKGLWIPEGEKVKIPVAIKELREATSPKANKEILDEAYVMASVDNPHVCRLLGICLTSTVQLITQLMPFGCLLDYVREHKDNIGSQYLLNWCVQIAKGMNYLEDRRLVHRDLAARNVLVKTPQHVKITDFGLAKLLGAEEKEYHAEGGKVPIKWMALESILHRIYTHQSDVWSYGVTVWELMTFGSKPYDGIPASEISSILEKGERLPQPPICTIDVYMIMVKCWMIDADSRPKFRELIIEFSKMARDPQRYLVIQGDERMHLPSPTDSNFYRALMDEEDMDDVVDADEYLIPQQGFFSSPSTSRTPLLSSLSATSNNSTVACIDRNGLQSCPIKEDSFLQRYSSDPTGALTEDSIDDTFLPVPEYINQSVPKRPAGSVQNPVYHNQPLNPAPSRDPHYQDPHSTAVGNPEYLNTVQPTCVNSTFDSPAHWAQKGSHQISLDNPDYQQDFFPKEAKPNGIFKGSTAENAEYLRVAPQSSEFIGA
T4 sequence (P35968 20-1356): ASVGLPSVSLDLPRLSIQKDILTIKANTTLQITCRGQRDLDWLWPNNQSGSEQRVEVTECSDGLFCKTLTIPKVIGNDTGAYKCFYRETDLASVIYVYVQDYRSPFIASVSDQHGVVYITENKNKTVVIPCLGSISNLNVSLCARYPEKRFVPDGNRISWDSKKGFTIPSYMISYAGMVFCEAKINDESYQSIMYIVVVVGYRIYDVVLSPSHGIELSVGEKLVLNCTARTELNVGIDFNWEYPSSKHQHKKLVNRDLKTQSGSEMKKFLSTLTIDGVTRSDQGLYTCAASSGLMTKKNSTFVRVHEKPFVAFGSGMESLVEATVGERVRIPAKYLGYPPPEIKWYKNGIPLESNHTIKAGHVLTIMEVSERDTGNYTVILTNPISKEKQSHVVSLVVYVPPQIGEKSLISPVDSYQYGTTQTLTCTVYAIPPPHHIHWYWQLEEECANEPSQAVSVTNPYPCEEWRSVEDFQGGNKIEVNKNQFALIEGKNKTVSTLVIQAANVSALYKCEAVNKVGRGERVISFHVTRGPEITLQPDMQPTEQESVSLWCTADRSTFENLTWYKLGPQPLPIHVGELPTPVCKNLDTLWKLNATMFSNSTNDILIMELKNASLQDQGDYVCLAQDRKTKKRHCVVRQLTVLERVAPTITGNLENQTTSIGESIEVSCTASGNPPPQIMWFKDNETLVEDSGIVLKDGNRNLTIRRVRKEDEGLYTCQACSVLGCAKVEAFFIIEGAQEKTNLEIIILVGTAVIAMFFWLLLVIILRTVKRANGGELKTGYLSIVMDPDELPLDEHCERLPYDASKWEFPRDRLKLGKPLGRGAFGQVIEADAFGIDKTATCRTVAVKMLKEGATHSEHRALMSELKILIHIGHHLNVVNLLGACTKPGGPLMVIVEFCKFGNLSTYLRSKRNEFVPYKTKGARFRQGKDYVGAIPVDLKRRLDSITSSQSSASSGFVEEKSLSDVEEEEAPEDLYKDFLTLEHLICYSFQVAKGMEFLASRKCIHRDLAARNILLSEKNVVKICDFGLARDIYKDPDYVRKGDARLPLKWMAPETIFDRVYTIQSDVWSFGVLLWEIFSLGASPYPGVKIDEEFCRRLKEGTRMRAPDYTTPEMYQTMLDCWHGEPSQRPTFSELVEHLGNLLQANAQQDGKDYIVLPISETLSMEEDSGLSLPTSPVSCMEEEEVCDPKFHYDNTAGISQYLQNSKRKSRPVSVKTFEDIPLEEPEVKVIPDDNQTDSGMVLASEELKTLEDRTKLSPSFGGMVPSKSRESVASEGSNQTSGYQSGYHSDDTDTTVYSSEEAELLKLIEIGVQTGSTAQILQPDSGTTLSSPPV

Structure (SMILES) | IC50 at 24 h [1] | IC50 (HeLa cells; Homo sapiens, 24 h) | IC50 (HepG2 cells [2]; Homo sapiens, HepG2, 24 h) | IC50 (MCF-7 cells; Homo sapiens, MCF7, 24 h) | IC50 (MDA-MB-231 cells; Homo sapiens, MDA-MB-231, 24 h) | melting point | other results
CCN(CC)CCNC(=O)c1c(C)[nH]c(/C=C2\C(=O)Nc3ccc(F)cc32)c1C [Sunitinib, sunitinib, reference compound] | 77.3 ± 4.3 µM | 21.8 ± 1.7 µM | 11.3 ± 1 µM | 24.8 ± 1.8 µM | 19 ± 1.5 µM |  | 
Cc1ccc(-n2c(SCc3ccc(Cl)cc3)nc3ccc(F)cc3c2=O)cc1 [Compound 5d, 2-(4-Chloro-benzylsulfanyl)-6-fluoro-3-(4-methylArenyl)-3H-quinazolin-4-one] | 40.9 µM | 6.38 ± 0.4 µM | 7.1 ± 0.6 µM | 2.48 ± 0.2 µM | 1.94 ± 0.1 µM |  | IC50 (WI38 cells): 64.3 ± 3.5 µM; IC50 [3]: 1.94 to 7.1 µM; IC50 (EGFR): 0.22 ± 0.013 µM; IC50 (CDK2): 2.1 ± 0.126 µM; IC50 (HER2): 0.184 ± 0.008 µM; IC50 (VEGFR2): 0.336 ± 0.009 µM; phase of cell cycle arrest (HepG2 cells [4]): S phase; drop in the cell population at the G0-G1 phase (HepG2 cells [4]; in comparison to the control): 4.5%; drop in the cell population at the G2/M phase (HepG2 cells [4]; in comparison to the control): 4.73%; increase in the cell population in the S phase (HepG2 cells [4]; in comparison to the control): 9.23%; necrosis, % of cell population (HepG2 cells [5]; control 1.45%): 3.08%; total apoptosis, % of cell population (HepG2 cells [5]; control 2.28%): 28.04%; gene expression of Bax, fold change (Bax): three; expression of anti-apoptotic gene Bcl2, fold change (Bcl2): 0.4 fold; gene expression of caspase-3, fold change (caspase-3): three; gene expression of caspase-9, fold change (caspase-9): two
Cc1ccc(-n2c(SCc3ccc(F)cc3)nc3ccc(F)cc3c2=O)cc1 [Compound 5e, 2-(4-Fluoro-benzylsulfanyl)-6-fluoro-3-(4-methylArenyl)-3H-quinazolin-4-one] | 55.8 ± 3.2 µM | 38.2 ± 2.3 µM | 29.5 ± 2.2 µM | 25.2 ± 1.9 µM | 19.2 ± 1.5 µM | 170 to 172 °C | IC50 [3]: 19.2 to 38.2 µM
COc1cccc2c1C(=O)c1c(O)c3c(c(O)c1C2=O)C[C@@](O)(C(=O)CO)C[C@@H]3O[C@H]1C[C@H](N)[C@H](O)[C@H](C)O1 [Dox., doxorubicin, reference compound] |  |  | 4.5 ± 0.2 µM |  |  |  | 
Cc1ccc(CSc2nc3ccc(F)cc3c(=O)n2-c2ccccc2)cc1 [Compound 5b, 6-Fluoro-2-(4-methyl-benzylsulfanyl)-3-Arenyl-3H-quinazolin-4-one] | > 100 µM | > 100 µM | 85 ± 4.6 µM | 91.2 ± 4.8 µM | 78.3 ± 3.9 µM | 158 to 160 °C | 
Cc1ccc(CSc2nc3ccc(F)cc3c(=O)n2-c2ccc(F)cc2)cc1 [Compound 5a, 3-(4-fluoro-Arenyl)-6-fluoro-2-(4-methyl-benzylsulfanyl)-3H-quinazolin-4-one] | 28.7 ± 2.2 µM | 83.2 ± 4.1 µM | > 100 µM | 86 ± 4.4 µM | 79.1 ± 4 µM | 166 to 168 °C | 
Cc1ccc(-n2c(SCc3ccccc3)nc3ccc(F)cc3c2=O)cc1 [Compound 5c, 2-Benzylsulfanyl-6-fluoro-3-(4-methyl-Arenyl)-3H-quinazolin-4-one] |  |  |  |  |  | 156 to 158 °C | IC50 (WI38 cells): 40.9 ± 2.6 µM; IC50 (HeLa cells): 31.2 ± 2.1 µM; IC50 (HepG2 cells [2]): 34.3 ± 2.4 µM; IC50 (MCF-7 cells): 51.9 ± 3.1 µM; IC50 (MDA-MB-231 cells): 26.9 ± 1.9 µM
